The source of these data is US6821769B2, “IniB, iniA and iniC genes of mycobacteria and methods of use” (priority 1998, dated 2004).

In one assay the test system is iniB promoter. The format is cell-based, BCG. The settings on record: for Induction of the iniB promoter at 24 hours: BCG containing the iniB/lacZ construct; for Induction of the iniB promoter at 24 hours / iniA gene induction / effect on iniA transcription: FIG. 4; for iniA gene induction / effect on iniA transcription: amino acids; for iniB promoter induction: 213 base pair iniB promoter in lacz reporter construct.

The test system of assay [1] is iniA. In words: Northern blot of iniA induction after antibiotic treatment. Type of assay: cell-based. The settings on record: total RNA from M. tuberculosis cultured with or without antibiotics; FIG. 1. The procedure: Autoradiographs of a Northern blot containing RNA from M. tuberculosis cultures treated either with no antibiotics; isoniazid 0.01 μg/ml; isoniazid 0.1 μg/ml; isoniazid 1 μg/ml; ethambutol 5 μg/ml; streptomycin 5 μg/ml; and rifampin 5 μg/ml. The blots were hybridized first with an iniA DNA probe (top) to examine iniA induction; the blot was then stripped and re-hybridized with a 16S probe (bottom) to confirm equal RNA loading.
Mycobacterial cultures were grown to mid log phase in Middlebrook 7H9 media supplemented with OADC, 0.05% Tween 80, and cyclohexamide (18) (for some experiments antibiotics were added for the last 18 hours), pelleted, resuspended in chloroform/methanol 3:1, and vortexed for 60 seconds or until the formation of an interface. RNA was extracted with five volumes of Triazole (Life Technologies, Gaithersburg, Md.), the aqueous layer precipitated in isopropanol, redissolved in 4M GTC and extracted a second time with Triazole.
Five μg of each RNA sample were analyzed by northern blot with Northern Max kits (Ambion, Austin, Tex.) in a 1% denaturing agarose gel, probed with inserts of differentially expressed plasmids labeled by random priming with [α^32P] dCTP, and visualized by autoradiography.

Assay [2] has as its system iniA. Type of assay: cell-based, M. tuberculosis strain Erdman. The settings on record: RT PCR; isoniazid added for the last 18 hours; FIG. 2A.
The test system of another assay is asd. The format is cell-based, M. tuberculosis strain Erdman. The settings on record: RT PCR; isoniazid added for the last 18 hours; FIG. 2A.

The structures appear in SMILES notation.

With `C[C@H](O)[C@@H](N)C(=O)O` [D-threonine], in the assay with iniB promoter, the “Induction of the iniB promoter at 24 hours” value (“Induction … at 24 hours” for short) was “comparable to that of isoniazid and Unisyn”; the “iniA gene induction / effect on iniA transcription” value is recorded as “induced”.
Regarding `C[C@@H](O)[C@H](N)C(=O)O` [L-threonine], in the assay with iniB promoter, the “Induction … at 24 hours” value is listed as “did not cause induction” and the “iniA gene induction / effect on iniA transcription” value is on record as “minimal effect”.
For `N[C@@H]1CON=C1O` [cycloserine], in the assay with iniB promoter (FIG. 3), the iniB promoter induction result was “induced”.
Take `CC[C@@H](CO)NCCN[C@@H](CC)CO` [ethambutol]: the “iniA induction (Northern blot)” value in the assay on iniA [1] was “strongly induced”. In addition, in the assay on iniB promoter (FIG. 3), the iniB promoter induction entry is given as “induced”.
Turning to `NCC(=O)O` [gylcine], the “Induction … at 24 hours” value in the assay with iniB promoter is recorded as “Modest induction”.
In the case of `NNC(=O)c1ccncc1` [isoniazid], the “iniA induction (Northern blot)” value in the assay on iniA [1] is “strongly induced”. Moreover, the iniB promoter induction entry with iniB promoter (FIG. 3) is recorded as “induced”. Moreover, the “iniA induction by densitometry” value in the assay on iniA [2] is 70 fold. The same compound returned an asd repression in the assay on asd of 17 fold.
Consider `CO[C@H]1/C=C/O[C@@]2(C)Oc3c(C)c(O)c4c(O)c(c(/C=N/N5CCN(C)CC5)c(O)c4c3C2=O)NC(=O)/C(C)=C\C=C\[C@H](C)[C@H](O)[C@@H](C)[C@@H](O)[C@@H](C)[C@H](OC(C)=O)[C@@H]1C` [rifampin], for which, in the assay with iniA [1], the “iniA induction (Northern blot)” value is reported as “not”. Moreover, in the assay with iniB promoter (co-administration with inducing antibiotic, FIG. 3), the “Reversal of iniB promoter induction by co-administration” value is listed as “can be reversed”.
As for `[H]/N=C(/N)N[C@H]1[C@H](O)[C@@H](O)[C@H](O[C@@H]2O[C@@H](C)[C@](O)(C=O)[C@H]2O[C@@H]2O[C@@H](CO)[C@H](O)[C@@H](O)[C@@H]2NC)[C@@H](N/C(N)=N\[H])[C@@H]1O` [streptomycin], the “iniA induction (Northern blot)” value in the assay on iniA [1] is on record as “not”.
